Assay [1] deals with T1, KPNA4 ARM minor (Homo sapiens, UniProt O00629).
T1 construct: 60-487; GST (cleaved yes); made in house; host or cells: Escherichia coli BL21-Gold(DE3)
The assay is described as follows: FP displacement assay, KPNA4 ARM minor pocket. The class given is binding. The following applies: for IC50: Fig 3E, KPNA4 ARM minor, technical triplicates, read-out: IC50 values of displacement curves, with SEM; for Kd: minor pocket probe FITC-NCOR2 5 nM, 50 mM sodium phosphate pH 7.4, room temperature, at least three technical replicates, read-out: KD values ± SEM. Here is the method: (§1) FP experiments were performed as described previously (Kliche et al, [2021]). Shortly, in order to monitor the binding event, FITC‐labelled peptides were used (excitation 495 nm, emission: 535 nm) and the FP signal was recorded in mP on a SpectraMax iD5 Multi‐Mode Microplate Reader (Molecular Devices) by measuring the emitted light in two angels. The measurements were performed at room temperature and prepared in nonbinding black half area 96‐well microplates (Corning®; 50 μl/well). For measuring direct binding, that is saturation curves, a 1:1 dilution series of protein domain (25 μl/well) was generated in 50 mM sodium phosphate buffer pH 7.4 and the measurement performed with 5 nM FITC‐labelled peptide (25 μl/well). The buffer‐corrected values were subsequently plotted with PRISM and fitted to the quadratic equation (Gianni et al, [2005]).
(§2) The 1:1 dilution series in this experiment was performed with the unlabelled peptide in 50 mM sodium phosphate buffer pH 7.4, so that each well‐contained unlabelled peptide (25 μl) at a certain concentration and pre‐formed complex (25 μl). The KD values of this indirectly monitored binding event were calculated as described previously (Nikolovska‐Coleska et al, [2004]). All measurements were at least in technical triplicates as well as biological duplicates when indicated. An amplitude shift between repeat measurements in the displacement experiments was occasionally observed due to variations in the protein preparations. If that was the case, the “active” protein concentration was back‐calculated according to the quadratic equation from the saturation curves performed in parallel. By comparing the active protein concentrations in the complex between different protein preparations, the amplitude was normalised.

For assay [2], the target named is T2, KPNA4 ARM Major (Homo sapiens, UniProt O00629).
T2 construct: 60-487; GST (cleaved yes); made in house; host or cells: Escherichia coli BL21-Gold(DE3)
T2 sequence (O00629 60-487): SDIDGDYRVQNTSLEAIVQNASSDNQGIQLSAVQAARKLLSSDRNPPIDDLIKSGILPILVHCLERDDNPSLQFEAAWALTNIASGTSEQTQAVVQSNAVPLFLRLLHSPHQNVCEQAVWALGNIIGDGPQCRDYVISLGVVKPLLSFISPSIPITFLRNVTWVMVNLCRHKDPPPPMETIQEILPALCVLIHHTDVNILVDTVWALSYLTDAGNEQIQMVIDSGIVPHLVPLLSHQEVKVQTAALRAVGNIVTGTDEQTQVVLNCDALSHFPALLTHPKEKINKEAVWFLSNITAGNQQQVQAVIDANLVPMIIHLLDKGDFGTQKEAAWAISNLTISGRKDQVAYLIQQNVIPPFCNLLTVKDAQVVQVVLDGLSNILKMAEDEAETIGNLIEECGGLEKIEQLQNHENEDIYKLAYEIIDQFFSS
The assay is described as follows: FP displacement assay, KPNA4 ARM major pocket. The class given is binding. The following applies: for IC50: Fig 3E, KPNA4 ARM major, technical triplicates, read-out: IC50 values of displacement curves, with SEM; for Kd: major pocket probe FITC-MYC 5 nM, 50 mM sodium phosphate pH 7.4, room temperature, at least three technical replicates, read-out: KD values ± SEM. Here is the method: as §1, §2

Assay [3] relates to KPNA4 ARM. Put plainly: Phosphomimetic ProP-PD selection, KPNA4 ARM. The class given is binding, human. The following applies: phosphomimetic enrichment score of the wild-type/phosphomimetic (E) pair at the phosphosite, PM_HD2 phage selection; same score in the major and minor pocket; P-value in brackets not taken.

We go through two compounds from publication PMC10333884, “Large‐scale phosphomimetic screening identifies phospho‐modulated motif‐based protein interactions” (Molecular Systems Biology, 2023).

Non-standard residues stand in square brackets, D forms with d. Residues, ends and D or L forms follow the SMILES beside them. pS = N[C@@H](COP(=O)(O)O)C(=O)O

As a reminder, the IC50 is the midpoint of a concentration-inhibition curve. The Kd is the free concentration of one partner at which half of the binding sites on the other are occupied at equilibrium, for simple one-to-one binding.

T1 sequence (O00629 60-487): as above

On to `CC(=O)N[C@@H](CC(N)=O)C(=O)N[C@@H](Cc1ccc(O)cc1)C(=O)N[C@@H](C)C(=O)N1CCC[C@H]1C(=O)N1CCC[C@H]1C(=O)N[C@H](C(=O)N[C@@H](CCCCN)C(=O)N[C@@H](CCCNC(=N)N)C(=O)N[C@@H](CCC(=O)O)C(=O)N[C@@H](CCCNC(=N)N)C(=O)N[C@H](C(=O)N[C@@H](COP(=O)(O)O)C(=O)N[C@@H](CO)C(=O)N[C@@H](CC(C)C)C(=O)N[C@H](C(=O)N[C@@H](CCC(N)=O)C(N)=O)[C@@H](C)O)[C@@H](C)O)C(C)C` [RANBP3_114–129 pS (p + 6)] (Ac-NYAPPVKRERT[pS]SLTQ-NH2), for which, in assay [1], the half-inhibitory concentration (IC50) is 98 ± 7 µM and the Kd turned out to be 20 ± 1 µM. Moreover, in assay [2], the half-inhibitory concentration (IC50) amounted to 2000 ± 500 nM and the Kd came out at 220 ± 30 nM.

As for `CC(=O)N[C@@H](CC(N)=O)C(=O)N[C@@H](Cc1ccc(O)cc1)C(=O)N[C@@H](C)C(=O)N1CCC[C@H]1C(=O)N1CCC[C@H]1C(=O)N[C@H](C(=O)N[C@@H](CCCCN)C(=O)N[C@@H](CCCNC(=N)N)C(=O)N[C@@H](CCC(=O)O)C(=O)N[C@@H](CCCNC(=N)N)C(=O)N[C@H](C(=O)N[C@@H](CCC(=O)O)C(=O)N[C@@H](CO)C(=O)N[C@@H](CC(C)C)C(=O)N[C@H](C(=O)N[C@@H](CCC(N)=O)C(N)=O)[C@@H](C)O)[C@@H](C)O)C(C)C` [RANBP3_114–129 E (p + 6)] (Ac-NYAPPVKRERTESLTQ-NH2), in assay [1], the 50% inhibitory concentration (IC50) was 385 ± 220 µM and the Kd worked out at 80 ± 27 µM. For the same compound, in assay [2], the IC50 stood at 1300 ± 100 nM and the Kd came out at 140 ± 10 nM. In addition, the PES in assay [3] is −3.1 (0.077).
